According to patent US11780823B2, “Indazole-3-carboxamides and their use as Wnt/β-catenin signaling pathway inhibitors” (BioSplice Therapeutics, Inc., priority 2011, dated 2023):

test system: Wnt activity (wnt-responsive SP5 promoter luciferase reporter in SW480 cells); experiment: Wnt reporter screening assay: SP5 promoter-driven firefly luciferase in SW480 cells; format: cell-based; conditions: Homo sapiens; SW480 colon cancer cells with SP5 promoter luciferase reporter; half-log dilutions, ten micromolar top concentration; read 24-40 h after compound addition; normalized to DMSO; read-out: Wnt inhibition
Text: Another screening assay for Wnt activity is described as follows. Reporter cell lines can be generated by stably transducing cells of cancer cell lines (e.g., colon cancer) with a lentiviral construct that include a wnt-responsive promoter driving expression of the firefly luciferase gene.
Lentiviral constructs can be made in which the SP5 promoter, a promoter having eight TCF/LEF binding sites derived from the SP5 promoter, is linked upstream of the firefly luciferase gene. The lentiviral constructs can also include a hygromycin resistance gene as a selectable marker. The SP5 promoter construct can be used to transduce SW480 cells, a colon cancer cell line having a mutated APC gene that generates a truncated APC protein, leading to de-regulated accumulation of β-catenin.
Cultured SW480 cells bearing a reporter construct can be distributed at approximately 10,000 cells per well into 96 well or 384 well plates. Compounds from a small molecule compound library can then be added to the wells in half-log dilutions using a ten micromolar top concentration. A series of control wells for each cell type receive only buffer and compound solvent. Twenty-four to forty hours after the addition of compound, reporter activity for luciferase can be assayed, for example, by addition of the BrightGlo luminescence reagent (Promega) and the Victor3 plate reader (Perkin Elmer). Readings can be normalized to DMSO only treated cells, and normalized activities can then be used in the IC50 calculations.

| Structure (SMILES) | IC50 [nM] |
| --- | --- |
| CN(C)C(=O)Nc1cncc(-c2ccc3[nH]nc(C(=O)Nc4cccnc4)c3c2)c1 [Compound 1, 5-(5-(3,3-dimethylureido)pyridin-3-yl)-N-(pyridin-3-yl)-1H-indazole-3-carboxamide] | 175 |
| O=C(Nc1ccc(C(F)(F)F)nc1)c1n[nH]c2ccc(-c3cncc(F)c3)cc12 [Compound 2, 5-(5-fluoropyridin-3-yl)-N-(6-(trifluoromethyl)pyridin-3-yl)-1H-indazole-3-carboxamide] | 5000 |
| O=C(Nc1ccc(C(F)(F)F)nc1)c1n[nH]c2ccc(-c3cccnc3)cc12 [Compound 3, 5-(Pyridin-3-yl)-N-(6-(trifluoromethyl)pyridin-3-yl)-1H-indazole-3-carboxamide] | 200 |
| O=C(Nc1cccnc1)c1n[nH]c2ccc(-c3cccnc3)cc12 [Compound 4, N,5-di(pyridin-3-yl)-1H-indazole-3-carboxamide] | 160 |
| O=C(Nc1cccc(-c2cccc(F)c2)c1)c1n[nH]c2ccc(-c3cccnc3)cc12 [Compound 5, N-(3′-Fluorobiphenyl-3-yl)-5-(pyridin-3-yl)-1H-indazole-3-carboxamide] | ≥ 10000 |
| O=C(Nc1ccncc1)c1n[nH]c2ccc(-c3cccnc3)cc12 [Compound 6, 5-(Pyridin-3-yl)-N-(pyridin-4-yl)-1H-indazole-3-carboxamide] | 270 |
| CN(C)Cc1cncc(NC(=O)c2n[nH]c3ccc(-c4cccnc4)cc23)c1 [Compound 7, N-(5-((Dimethylamino)methyl)pyridin-3-yl)-5-(pyridin-3-yl)-1H-indazole-3-carboxamide] | 110 |
| O=C(Nc1ccc(CN2CCCC2)nc1)c1n[nH]c2ccc(-c3cccnc3)cc12 [Compound 8, 5-(Pyridin-3-yl)-N-(6-(pyrrolidin-1-ylmethyl)pyridin-3-yl)-1H-indazole-3-carboxamide] | 130 |
| O=C(Nc1cncc(-c2cccc(F)c2)c1)c1n[nH]c2ccc(-c3cccnc3)cc12 [Compound 9, N-(5-(3-Fluorophenyl)pyridin-3-yl)-5-(pyridin-3-yl)-1H-indazole-3-carboxamide] | ≥ 10000 |
| CN1CCN(c2ncccc2NC(=O)c2n[nH]c3ccc(-c4cccnc4)cc23)CC1 [Compound 11, N-(2-(4-Methylpiperazin-1-yl)pyridin-3-yl)-5-(pyridin-3-yl)-1H-indazole-3-carboxamide] | ≥ 10000 |
| CN1CCN(c2ccc(NC(=O)c3n[nH]c4ccc(-c5cccnc5)cc34)cn2)CC1 [Compound 12, N-(6-(4-Methylpiperazin-1-yl)pyridin-3-yl)-5-(pyridin-3-yl)-1H-indazole-3-carboxamide] | 63 |
| O=C(Nc1cccnc1)c1n[nH]c2ccc(-c3cncc(F)c3)cc12 [Compound 13, 5-(5-fluoropyridin-3-yl)-N-(pyridin-3-yl)-1H-indazole-3-carboxamide] | 1250 |
| O=C(Nc1ccnnc1)c1n[nH]c2ccc(-c3cccnc3)cc12 [Compound 14, N-(Pyridazin-4-yl)-5-(pyridin-3-yl)-1H-indazole-3-carboxamide] | 106 |
| CN1CCN(Cc2ccc(NC(=O)c3n[nH]c4ccc(-c5cccnc5)cc34)cn2)CC1 [Compound 15, N-(6-((4-Methylpiperazin-1-yl)methyl)pyridin-3-yl)-5-(pyridin-3-yl)-1H-indazole-3-carboxamide] | 37 |
| O=C(Nc1cccnc1)c1n[nH]c2ccc(-c3cncc(C(F)(F)F)c3)cc12 [Compound 16, N-(pyridin-3-yl)-5-(5-(trifluoromethyl)pyridin-3-yl)-1H-indazole-3-carboxamide] | ≥ 10000 |
| O=C(Nc1ccc(Oc2ccccc2F)nc1)c1n[nH]c2ccc(-c3cccnc3)cc12 [Compound 18, N-(6-(2-fluorophenoxy)pyridin-3-yl)-5-(pyridin-3-yl)-1H-indazole-3-carboxamide] | 122 |
| O=C(Nc1ccc(Oc2cccc(F)c2)nc1)c1n[nH]c2ccc(-c3cccnc3)cc12 [Compound 19, N-(6-(3-Fluorophenoxy)pyridin-3-yl)-5-(pyridin-3-yl)-1H-indazole-3-carboxamide] | 107 |
| O=C(Nc1ccc(Oc2ccc(F)cc2)nc1)c1n[nH]c2ccc(-c3cccnc3)cc12 [Compound 20, N-(6-(4-Fluorophenoxy)pyridin-3-yl)-5-(pyridin-3-yl)-1H-indazole-3-carboxamide] | 118 |
| O=C(Nc1cncc(F)c1)c1n[nH]c2ccc(-c3cccnc3)cc12 [Compound 23, N-(5-Fluoropyridin-3-yl)-5-(pyridin-3-yl)-1H-indazole-3-carboxamide] | 120 |

| Structure (SMILES) | IC50 [nM] |
| --- | --- |
| CN(C)Cc1cncc(-c2ccc3[nH]nc(C(=O)Nc4ccc(C(F)(F)F)nc4)c3c2)c1 [Compound 26, 5-(5-((Dimethylamino)methyl)pyridin-3-yl)-N-(6-(trifluoromethyl)pyridin-3-yl)-1H-indazole-3-carboxamide] | 210 |
| O=C(Nc1cccnc1)c1n[nH]c2ccc(-c3cncc(NC(=O)N4CCOCC4)c3)cc12 [Compound 32, N-(5-(3-(Pyridin-3-ylcarbamoyl)-1H-indazol-5-yl)pyridin-3-yl) morpholine-4-carboxamide] | 1250 |
| CN(C)Cc1cncc(-c2ccc3[nH]nc(C(=O)Nc4ccc(Oc5ccccc5F)nc4)c3c2)c1 [Compound 36, 5-(5-((Dimethylamino)methyl)pyridin-3-yl)-N-(6-(2-fluorophenoxy)pyridin-3-yl)-1H-indazole-3-carboxamide] | 275 |
| Cn1nc(NC(=O)c2n[nH]c3ccc(-c4cccnc4)cc23)cc1C(F)(F)F [Compound 37, N-(1-Methyl-5-(trifluoromethyl)-1H-pyrazol-3-yl)-5-(pyridin-3-yl)-1H-indazole-3-carboxamide] | 1120 |
| CN1CCN(c2ccc(NC(=O)c3n[nH]c4ccc(-c5cncc(NC(=O)C6CC6)c5)cc34)cn2)CC1 [Compound 38, 5-(5-(Cyclopropanecarboxamido)pyridin-3-yl)-N-(6-(4-methylpiperazin-1-yl)pyridin-3-yl)-1H-indazole-3-carboxamide] | 120 |
| O=C(Nc1ccc(C(F)(F)F)nc1)c1n[nH]c2ccc(-c3cncc(NC(=O)C4CC4)c3)cc12 [Compound 39, 5-(5-(Cyclopropanecarboxamido)pyridin-3-yl)-N-(6-(trifluoromethyl)pyridin-3-yl)-1H-indazole-3-carboxamide] | 65 |
| CN(C)Cc1cncc(-c2ccc3[nH]nc(C(=O)Nc4cccnc4)c3c2)c1 [Compound 40, 5-(5-((Dimethylamino)methyl)pyridin-3-yl)-N-(pyridin-3-yl)-1H-indazole-3-carboxamide] | 65 |
| O=C(Nc1cccnc1)c1n[nH]c2ccc(-c3cncc(NC(=O)C4CC4)c3)cc12 [Compound 41, 5-(5-(Cyclopropanecarboxamido)pyridin-3-yl)-N-(pyridin-3-yl)-1H-indazole-3-carboxamide] | 67 |
| O=C(NCc1cccnc1)c1n[nH]c2ccc(-c3cccnc3)cc12 [Compound 42, 5-(Pyridin-3-yl)-N-(pyridin-3-ylmethyl)-1H-indazole-3-carboxamide] | 500 |
| O=C(Nc1cccnc1)c1n[nH]c2ccc(-c3cncc(CN4CCCC4)c3)cc12 [Compound 43, N-(Pyridin-3-yl)-5-(5-(pyrrolidin-1-ylmethyl)pyridin-3-yl)-1H-indazole-3-carboxamide] | 63 |
| CCOc1ccc(NC(=O)c2n[nH]c3ccc(-c4cncc(CN5CCCC5)c4)cc23)cn1 [Compound 44, N-(6-Ethoxypyridin-3-yl)-5-(5-(pyrrolidin-1-ylmethyl)pyridin-3-yl)-1H-indazole-3-carboxamide] | 158 |
| CCOc1ccc(NC(=O)c2n[nH]c3ccc(-c4cncc(CN5CCCCC5)c4)cc23)cn1 [Compound 45, N-(6-Ethoxypyridin-3-yl)-5-(5-(piperidin-1-ylmethyl)pyridin-3-yl)-1H-indazole-3-carboxamide] | 110 |
| O=C(Nc1cccnc1)c1n[nH]c2ccc(-c3cncc(CN4CCCCC4)c3)cc12 [Compound 46, 5-(5-(Piperidin-1-ylmethyl)pyridin-3-yl)-N-(pyridin-3-yl)-1H-indazole-3-carboxamide] | 15 |
| O=C(Nc1cnccc1C(F)(F)F)c1n[nH]c2ccc(-c3cncc(CN4CCCCC4)c3)cc12 [Compound 47, 5-(5-(Piperidin-1-ylmethyl)pyridin-3-yl)-N-(4-(trifluoromethyl)pyridin-3-yl)-1H-indazole-3-carboxamide] | 71 |
| O=C(Nc1cnccc1C(F)(F)F)c1n[nH]c2ccc(-c3cccnc3)cc12 [Compound 48, 5-(Pyridin-3-yl)-N-(4-(trifluoromethyl)pyridin-3-yl)-1H-indazole-3-carboxamide] | ≥ 10000 |
| O=C(Nc1cccnc1)c1n[nH]c2ccc(-c3cccc(CN4CCCC4)c3)cc12 [Compound 49, N-(Pyridin-3-yl)-5-(3-(pyrrolidin-1-ylmethyl)phenyl)-1H-indazole-3-carboxamide] | 57 |
| O=C(Nc1ccc(-c2ccccc2)nc1)c1n[nH]c2ccc(-c3cncc(CN4CCCC4)c3)cc12 [Compound 50, N-(6-Phenylpyridin-3-yl)-5-(5-(pyrrolidin-1-ylmethyl)pyridin-3-yl)-1H-indazole-3-carboxamide] | 71 |
| O=C(Nc1cccnc1)c1n[nH]c2ccc(-c3ccc(N4CCCC4)nc3)cc12 [Compound 51, N-(Pyridin-3-yl)-5-(6-(pyrrolidin-1-yl)pyridin-3-yl)-1H-indazole-3-carboxamide] | 26 |
